These molecules were tested against T1, PI3Kβ (Homo sapiens, UniProt P42338) (assay: HTRF in vitro profiling assay for PI3K inhibition, beta isoform). Conditions: one experimental run or average of two or more runs; 200 pM enzyme, 100 uM ATP, 10 uM PIP2; read-out: P13KB PIC50 MEAN (converted).
T1 construct: made in house
Format: biochemical
From the text: The PI3-Kinase profiling assays were developed to measure the compound-dependent inhibition of the alpha, beta, delta, and gamma isoforms of PI3K in an in vitro catalytic assay. This assay was developed and optimized from a kit produced by Upstate (Millipore catalog #33-017). Briefly, this procedure utilizes a pre-formed HTRF (Homogeneous Time-Resolved Fluorescence energy transfer) complex between four binding partners: 1) biotinylated PIP3, 2) GST tagged pleckstrin homology (PH) domain, 3) Europium labeled anti-GST monoclonal antibody, and 4) Streptavidin-Allophycocyanin (APC). The native PIP3 produced by PI 3-Kinase activity displaces biotin-PIP3 from the PH domain, resulting in the dissociation of the HTRF complex and a decrease in the fluorescence signal. The format of this assay is the same for all 4 isoforms of PI3K; the differences lie in the concentration of enzyme used to achieve the most robust signal. The alpha and delta assays are run at 400 pM enzyme; the beta assay is at 200 pM enzyme and the gamma assay is run at 1 nM enzyme. In addition, the alpha, beta and delta assays are run with 150 mM NaCl while the gamma assay is run in the absence of NaCl. The ATP concentration is 100 uM in the alpha, beta, and delta assays and 15 uM ATP in the gamma assay. All reactions are run at 10 uM PIP2
Compounds were serially diluted (3-fold in 100% DMSO) across a 384-well polypropylene mother plate from column 1 to column 12 and column 13 to column 24, to yield 11 concentrations for each test compound. Columns 6 and 18 contain only DMSO. Once titrations were made, 0.05 μL was transferred to a 384-well low-volume assay plate (Greiner 784076). This assay plate contained three pharmacological controls (known PI3K inhibitors) and 3 assay controls: (1) Enzyme without inhibitor; (2) Buffer minus enzyme, and (3) Buffer minus enzyme plus native PIP3. DMSO was stamped into all wells of columns 6 and 18. PIP3 was added at 40 μM in 1× Reaction buffer (1 μL of 200 μM PIP3) to alternating rows of column 18 (wells 18 B, D, F, H, J, L, N, P). The no-enzyme control reactions were run in wells 18 A, C, E, G, I, K, M, O (0.1 μL of 100% DMSO).
The PI3-Kinase profiling assay was optimized using the HTRF kit provided by Upstate (Millipore). The assay kit contained seven reagents: 1) 4× Reaction Buffer; 2) native PIP2 (substrate); 3) Stop A (EDTA); 4) Stop B (Biotin-PIP3); 5) Detection Mix A (Streptavidin-APC); 6) Detection Mix B (Eu-labeled Anti-GST plus GST-tagged PH-domain); 7) Detection Mix C (KF). In addition, the following items were obtained or purchased: PI3Kinase (prepared by GSK BR&AD), dithiothreitol (Sigma, D-5545), Adenosine-5′-triphosphate (ATP, Teknova cat. #A0220), native PIP3 (1,2-dioctanoyl-sn-glycero-3-[phosphoinositil-3,4,5-triphosphate]tetraammonium salt (Avanti polar lipids, 850186P), DMSO (Sigma, 472301).
PI3Kinase Reaction Buffer was prepared by diluting the stock 1:4 with de-ionized water. Freshly prepared DTT was added at a final concentration of 5 mM on the day of use. Enzyme addition and compound pre-incubation were initiated by the addition of 2.5 μL of PI3K (at twice its final concentration) in 1× reaction buffer to all wells using a Multidrop Combi. Plates were incubated at room temperature for 15 minutes. Reactions were initiated by addition of 2.5 μL of 2× substrate solution (PIP2 and ATP in 1× reaction buffer) using a Multidrop Combi. Plates were incubated at room temperature for one hour. Reactions were quenched by the addition of 2.5 μL of stop solution (Stop A and Stop B pre-mixed at a ratio of 5:1, respectively) to all wells using the Multidrop Combi.

T1 sequence (P42338 whole entry, canonical isoform): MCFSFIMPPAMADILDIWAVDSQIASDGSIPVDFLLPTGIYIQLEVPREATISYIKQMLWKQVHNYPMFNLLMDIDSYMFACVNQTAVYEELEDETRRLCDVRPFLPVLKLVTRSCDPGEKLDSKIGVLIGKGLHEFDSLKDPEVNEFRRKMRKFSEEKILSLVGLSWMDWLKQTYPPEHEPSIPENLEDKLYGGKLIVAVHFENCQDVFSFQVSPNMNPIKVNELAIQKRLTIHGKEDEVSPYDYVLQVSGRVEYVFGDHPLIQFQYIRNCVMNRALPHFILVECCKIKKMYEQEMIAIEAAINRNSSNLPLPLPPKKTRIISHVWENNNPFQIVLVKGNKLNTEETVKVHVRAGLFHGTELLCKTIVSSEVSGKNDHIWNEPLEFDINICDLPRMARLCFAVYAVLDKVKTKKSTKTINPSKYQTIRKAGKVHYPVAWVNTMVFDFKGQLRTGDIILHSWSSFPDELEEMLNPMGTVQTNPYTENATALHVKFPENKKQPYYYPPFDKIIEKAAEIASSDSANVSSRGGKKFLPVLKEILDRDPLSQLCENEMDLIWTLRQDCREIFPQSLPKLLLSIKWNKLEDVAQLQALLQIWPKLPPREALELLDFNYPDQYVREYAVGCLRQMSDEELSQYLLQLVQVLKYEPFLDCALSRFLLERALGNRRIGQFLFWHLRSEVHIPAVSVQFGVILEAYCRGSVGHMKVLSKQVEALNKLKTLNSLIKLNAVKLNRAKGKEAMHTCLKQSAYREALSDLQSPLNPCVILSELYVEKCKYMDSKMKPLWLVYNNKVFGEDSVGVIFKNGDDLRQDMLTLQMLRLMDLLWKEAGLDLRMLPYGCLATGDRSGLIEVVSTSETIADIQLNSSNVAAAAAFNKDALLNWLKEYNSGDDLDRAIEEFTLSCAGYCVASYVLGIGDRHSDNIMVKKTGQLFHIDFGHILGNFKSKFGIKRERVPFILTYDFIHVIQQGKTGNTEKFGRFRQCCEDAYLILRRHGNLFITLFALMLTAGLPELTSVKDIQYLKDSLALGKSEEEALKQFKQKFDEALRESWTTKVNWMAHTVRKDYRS
T1 sequence (P27986 whole entry partner, canonical isoform): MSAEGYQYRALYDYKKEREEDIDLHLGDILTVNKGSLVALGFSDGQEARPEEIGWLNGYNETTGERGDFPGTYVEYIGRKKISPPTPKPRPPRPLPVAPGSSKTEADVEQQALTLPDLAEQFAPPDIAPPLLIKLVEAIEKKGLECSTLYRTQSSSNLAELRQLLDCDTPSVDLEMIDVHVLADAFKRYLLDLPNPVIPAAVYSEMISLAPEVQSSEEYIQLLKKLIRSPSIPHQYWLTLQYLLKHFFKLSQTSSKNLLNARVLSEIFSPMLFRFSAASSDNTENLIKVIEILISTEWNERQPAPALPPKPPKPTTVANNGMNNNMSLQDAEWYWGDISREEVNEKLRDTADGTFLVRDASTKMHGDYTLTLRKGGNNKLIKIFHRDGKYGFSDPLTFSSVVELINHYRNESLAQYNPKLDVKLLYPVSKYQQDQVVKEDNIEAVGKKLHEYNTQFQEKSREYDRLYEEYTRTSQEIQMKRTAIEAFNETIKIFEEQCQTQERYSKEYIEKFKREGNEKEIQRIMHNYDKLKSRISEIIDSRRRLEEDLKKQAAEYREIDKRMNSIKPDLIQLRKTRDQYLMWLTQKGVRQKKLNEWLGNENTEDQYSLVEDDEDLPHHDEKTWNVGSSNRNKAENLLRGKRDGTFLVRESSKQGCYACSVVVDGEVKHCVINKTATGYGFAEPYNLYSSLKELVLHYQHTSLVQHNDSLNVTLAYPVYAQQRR

Structure (SMILES) | IC50
CC(=O)Nc1cc(N2CCOCC2)cc2c1nc(C)n2Cc1cccc2ccccc12 [Example 3, N-(2-Methyl-6-morpholin-4-yl-1-naphthalen-1-ylmethyl-1H-benzoimidazol-4-yl)-acetamide] | 200 nM
Cc1nc2c(O)cc(N3CCOCC3)cc2n1Cc1cccc2ccccc12 [Example 5, 2-methyl-6-(4-morpholinyl)-1-(1-naphthalenylmethyl)-1H-benzimidazol-4-ol] | 1.58 nM
CC(C)c1nc2c(O)cc(N3CCOCC3)cc2n1Cc1cccc2ccccc12 [Example 11, 2-(1-methylethyl)-6-(4-morpholinyl)-1-(1-naphthalenylmethyl)-1H-benzimidazol-4-ol] | 2 nM
CC(C)c1nc2c(O)cc(N3CCOCC3)cc2n1Cc1cccc(Cl)c1Cl [Example 13, 1-[(2,3-dichlorophenyl)methyl]-2-(1-methylethyl)-6-(4-morpholinyl)-1H-benzimidazol-4-ol] | 7.94 nM
CCc1nc2c(O)cc(N3CCOCC3)cc2n1Cc1cccc(Cl)c1Cl [Example 14, 1-[(2,3-dichlorophenyl)methyl]-2-ethyl-6-(4-morpholinyl)-1H-benzimidazol-4-ol] | 3.16 nM
Cc1nc2c(F)cc(N3CCOCC3)cc2n1Cc1cccc2ccccc12 [Example 15, 4-fluoro-2-methyl-6-(4-morpholinyl)-1-(1-naphthalenylmethyl)-1H-benzimidazole] | 1 nM
CCc1nc2c(F)cc(N3CCOCC3)cc2n1Cc1cccc2ccccc12 [Example 17, 2-ethyl-4-fluoro-6-(4-morpholinyl)-1-(1-naphthalenylmethyl)-1H-benzimidazole] | 2.51 nM
CCc1nc2c(F)cc(N3CCOCC3)cc2n1Cc1cccc(Cl)c1Cl [Example 18, 1-[(2,3-dichlorophenyl)methyl]-2-ethyl-4-fluoro-6-(4-morpholinyl)-1H-benzimidazole] | 10 nM
Cc1nc2c(C(=O)O)cc(N3CCOCC3)cc2n1Cc1cccc2ccccc12 [Example 20, 2-methyl-6-(4-morpholinyl)-1-(1-naphthalenylmethyl)-1H-benzimidazole-4-carboxylic acid] | 6.31 nM
Cc1nc2c(C(=O)O)cc(N3CCOCC3)cc2n1Cc1cccc(Cl)c1Cl [Example 22, 1-[(2,3-dichlorophenyl)methyl]-2-methyl-6-(4-morpholinyl)-1H-benzimidazole-4-carboxylic acid] | 15.8 nM
Cc1nc2c(-c3nnc[nH]3)cc(N3CCOCC3)cc2n1Cc1cccc2ccccc12 [Example 25, 2-methyl-6-(4-morpholinyl)-1-(1-naphthalenylmethyl)-4-(1H-1,2,4-triazol-3-yl)-1H-benzimidazole] | 0.251 nM
Cc1nc2c(C#N)cc(N3CCOCC3)cc2n1Cc1cccc(Cl)c1Cl [Example 32, 1-[(2,3-dichlorophenyl)methyl]-2-methyl-6-(4-morpholinyl)-1H-benzimidazole-4-carbonitrile] | 12.6 nM

More lines, now with the values ahead:

IC50 | Structure (SMILES)
63.1 nM | Cc1nc2c(C(=O)O)cc(N3CCOCC3)cc2n1Cc1cccc2cccnc12 [Example 35, 2-methyl-6-(4-morpholinyl)-1-(8-quinolinylmethyl)-1H-benzimidazole-4-carboxylic acid]
100 nM | Cc1nc2c(C(=O)O)cc(N3CCOCC3)cc2n1Cc1ccc(Cl)c(Cl)c1 [Example 38, 1-[(3,4-dichlorophenyl)methyl]-2-methyl-6-(4-morpholinyl)-1H-benzimidazole-4-carboxylic acid]
0.631 nM | Cc1c(Cn2c(C)nc3c(-c4nnc[nH]4)cc(N4CCOCC4)cc32)cccc1C(F)(F)F [Example 39, 2-methyl-1-{[2-methyl-3-(trifluoromethyl)phenyl]methyl}-6-(4-morpholinyl)-4-(1H-1,2,4-triazol-3-yl)-1H-benzimidazole]
1.58 nM | CC(=O)c1cc(N2CCOCC2)cc2c1nc(C)n2Cc1cccc2ccccc12 [Example 41, 1-[2-methyl-6-(4-morpholinyl)-1-(1-naphthalenylmethyl)-1H-benzimidazol-4-yl]ethanone]
5.01 nM | Cc1c(Cn2c(C)nc3c(CO)cc(N4CCOCC4)cc32)cccc1C(F)(F)F [Example 43, [2-methyl-1-{[2-methyl-3-(trifluoromethyl)phenyl]methyl}-6-(4-morpholinyl)-1H-benzimidazol-4-yl]methanol]
1.26 nM | O=C(O)c1cc(N2CCOCC2)cc2c1nc(C(F)(F)F)n2Cc1cccc2ccccc12 [Example 50, 6-(4-morpholinyl)-1-(1-naphthalenylmethyl)-2-(trifluoromethyl)-1H-benzimidazole-4-carboxylic acid]
0.501 nM | Cc1c(Cl)cccc1Cn1c(C(F)(F)F)nc2c(C(=O)O)cc(N3CCOCC3)cc21 [Example 53, 1-[(3-chloro-2-methylphenyl)methyl]-6-(4-morpholinyl)-2-(trifluoromethyl)-1H-benzimidazole-4-carboxylic acid]
2.51 nM | Cc1c(Cn2c(C(F)(F)F)nc3c(C(N)=O)cc(N4CCOCC4)cc32)cccc1C(F)(F)F [Example 54, 1-{[2-methyl-3-(trifluoromethyl)phenyl]methyl}-6-(4-morpholinyl)-2-(trifluoromethyl)-1H-benzimidazole-4-carboxamide]
6.31 nM | Cc1nc2c(-c3nnn[nH]3)cc(N3CCOCC3)cc2n1Cc1cccc2ccccc12 [Example 58, 2-methyl-6-(4-morpholinyl)-1-(1-naphthalenylmethyl)-4-(1H-tetrazol-5-yl)-1H-benzimidazole]
6.31 nM | Cc1c(Cl)cccc1Cn1c(C)nc2c(C(=O)O)cc(N3CCOCC3)cc21 [Example 59, 1-[(3-chloro-2-methylphenyl)methyl]-2-methyl-6-(4-morpholinyl)-1H-benzimidazole-4-carboxylic acid]
1 nM | Cc1c(Cn2c(C)nc3c(Br)cc(N4CCOCC4)cc32)cccc1C(F)(F)F [Example 63, 4-bromo-2-methyl-1-{[2-methyl-3-(trifluoromethyl)phenyl]methyl}-6-(4-morpholinyl)-1H-benzimidazole]
0.2 nM | Cc1c(Cn2c(C(F)F)nc3c(C(=O)O)cc(N4CCOCC4)cc32)cccc1C(F)(F)F [Example 70, 2-(difluoromethyl)-1-{[2-methyl-3-(trifluoromethyl)phenyl]methyl}-6-(4-morpholinyl)-1H-benzimidazole-4-carboxylic acid]
1.58 nM | Cc1c(Cl)cccc1Cn1c(C(F)F)nc2c(C(=O)O)cc(N3CCOCC3)cc21 [Example 72, 1-[(3-chloro-2-methylphenyl)methyl]-2-(difluoromethyl)-6-(4-morpholinyl)-1H-benzimidazole-4-carboxylic acid]
25.1 nM | Cc1nc2c(C(=O)O)cc(N3CCOCC3)cc2n1Cc1cccc2ccsc12 [Example 73, 1-(1-benzothien-7-ylmethyl)-2-methyl-6-(4-morpholinyl)-1H-benzimidazole-4-carboxylic acid]
